The results in this text go back to patent US7718641B2, “Pyrrolo [3,4-H] isoquinoline compounds and methods for modulating gated ion channels” (Aros Pharma ApS, priority 2005, dated 2010).

The target of the assay is T1, rat ASIC1a (Rattus norvegicus, UniProt P55926).
T1 construct: expressed in transfected cells; host or cells: HEK293
T1 sequence (P55926 1-526): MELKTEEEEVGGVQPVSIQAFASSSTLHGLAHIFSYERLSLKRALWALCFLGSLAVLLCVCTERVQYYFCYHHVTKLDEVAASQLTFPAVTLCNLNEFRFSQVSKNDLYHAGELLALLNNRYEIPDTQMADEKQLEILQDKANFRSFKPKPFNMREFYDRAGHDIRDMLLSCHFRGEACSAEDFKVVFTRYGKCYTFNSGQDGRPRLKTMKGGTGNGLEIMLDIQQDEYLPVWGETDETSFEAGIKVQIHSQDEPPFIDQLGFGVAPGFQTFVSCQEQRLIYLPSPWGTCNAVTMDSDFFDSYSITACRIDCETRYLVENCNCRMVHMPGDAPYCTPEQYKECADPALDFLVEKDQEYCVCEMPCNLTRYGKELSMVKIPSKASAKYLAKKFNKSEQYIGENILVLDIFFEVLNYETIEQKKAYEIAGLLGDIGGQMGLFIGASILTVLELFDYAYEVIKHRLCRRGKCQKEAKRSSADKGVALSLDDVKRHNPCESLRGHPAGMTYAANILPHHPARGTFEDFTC
The experiment in a line: Whole-cell patch clamp of acid-induced peak inward currents in HEK293 transfected with rat ASIC1a. It counts as cell-based. Particulars: for inhibitory effect on acid-induced peak inward currents, rASIC1a: HEK293, voltage clamp, increasing concentrations; for potency as antagonist compared to amiloride, rASIC1a: full dose-inhibition curves, HEK293. Here is the method: Another example of an in vitro assessment method consists of using mammalian heterologous expression systems, which are known to the skilled in the art, and include a variety of mammalian cell lines such as COS, HEK, e.g., HEK293 and/or CHO, cells. Cell lines are transfected with gated ion channel(s) and used to perform electrophysiology as follows:
All experiments are performed at room temperature (20-25° C.) in voltage clamp using conventional whole cell patch clamp methods (Neher, E., et al. (1978) Pfluegers Arch 375:219-228).
The amplifier used is the EPC-9 (HEKA-electronics, Lambrect, Germany) run by a Macintosh G3 computer via an ITC-16 interface. Experimental conditions are set with the Pulse-software accompanying the amplifier. Data is low pass filtered and sampled directly to hard-disk at a rate of 3 times the cut-off frequency.
Pipettes are pulled from borosilicate glass using a horizontal electrode puller (Zeitz-Instrumente, Augsburg, Germany). The pipette resistances are 2-3 MOhms in the salt solutions used in these experiments. The pipette electrode is a chloridized silver wire, and the reference is a silver chloride pellet electrode (In Vivo Metric, Healdsburg, USA) fixed to the experimental chamber. The electrodes are zeroed with the open pipette in the bath just prior to sealing.
Coverslips with the cells are transferred to a 15 μl experimental chamber mounted on the stage of an inverted microscope (IMT-2, Olympus) supplied with Nomarski optics. Cells are continuously superfused with extracellular saline at a rate of 2.5 ml/min. After giga-seal formation, the whole cell configuration is attained by suction. The cells are held at a holding voltage of −60 mV and at the start of each experiment the current is continuously measured for 45 s to ensure a stable baseline. Solutions of low pH (<7) are delivered to the chamber through a custom-made gravity-driven flowpipe, the tip of which is placed approximately 50 μm from the cell. Application is triggered when the tubing connected to the flowpipe is compressed by a valve controlled by the Pulse-software. Initially, low pH (in general, pH 6.5) is applied for 5 s every 60 s. The sample interval during application is 5501s. […] Current amplitudes are measured at the peak of the responses, and effect of the compounds is calculated as the amplitude at compound equilibrium divided by the amplitude of the current evoked by the pulse just before the compound was included. […]
HEK293 cells were transfected with rASIC1a or rASIC3 and were used to perform full dose-inhibition curves with Compound A, Compound H and amiloride. Results are expressed as a fraction of the control peak current obtained in the absence of the test substance.

Take `COc1ccc(F)cc1-c1cc2c(c3c1CCN(C)C3)NC(=O)/C2=N/O` [Compound A, 5-(5-fluoro-2-methoxyphenyl)-6,7,8,9-tetrahydro-3-(hydroxyimino)-8-methyl-1H-pyrrolo[3,2-h]isoquinoline-2(3H)-one]: the “inhibitory effect on acid-induced peak inward currents, rASIC1a” value is “dose-dependently inhibit” and the “potency as antagonist compared to amiloride, rASIC1a” value is given as “more potent antagonists as compared to amiloride”.
For `CCN1CCc2c(-c3ccccc3)cc3c(c2C1)NC(=O)/C3=N/O` [Compound H, 5-phenyl-6,7,8,9-tetrahydro-3-(hydroxyimino)-8-ethyl-1H-pyrrolo[3,2-h]isoquinoline-2(3H)-one], in that order: “dose-dependently inhibit” and “more potent antagonists as compared to amiloride”.
